{
  "source": "patent US4163799A",
  "about": "“Psychostimulant compounds” (Union Chimique Continentale U.C.C., priority 1975, dated 1979)",
  "key": {"[1]": {"experiment": "Determination of acute toxicity in the mouse (LD50, Behrens and Karber method)", "set-up": "species or system mouse (male, Swiss NMRI)", "details": "in vivo", "method": "(§1) All the experiments described below were carried out on male rats weighing between 170 and 220 g (Wistar AF strain) and male mice weighing between 18 and 23 g (Swiss NMRI strain), unless indicated to the contrary. All the experiments were conducted in a constant-temperature laboratory (22±1° C.). […] Unless indicated to the contrary 10 animals per batch were always used."}, "[2]": {"experiment": "Observation of animals, mouse", "type": "in vivo, mouse (male, Swiss NMRI)", "method": "as §1"}, "Perforated board test": {"experiment": "Perforated board test", "type": "in vivo", "method": "as §1\nThe technique and apparatus described by Boissier and Simon (Physiol. Behav. 1967, 2, 444-448) were used. In these experiments 15 animals per group were used (except for 30 for the controls and 30 for the 32 mg/kg dose)."}, "[3]": {"experiment": "Antioxotremorine activity test", "type": "in vivo, mouse (male, Swiss NMRI)", "details": "8, 16, 32 mg/kg orally or ip; oxotremorine 0.5 mg/kg IP", "method": "as §1\nIn mice which received doses of 8, 16, and 32 mg/kg of NaAHDH orally or intraperitoneally the effects of oxotremorine (0.5 mg/kg IP) were unchanged, in terms of hyperthermia, trembling, lacrimation, hypersalivation, and defecation."}, "[4]": {"details": "doses less than toxic, from 4 mg/kg orally or ip"}, "[5]": {"details": "8 mg/kg orally 60 min before test"}, "[6]": {"details": "16 mg/kg orally 60 min before test"}, "[7]": {"details": "32 mg/kg orally 60 min before test"}, "[8]": {"details": "64 mg/kg orally 60 min before test"}},
  "note": "Counter-ions that a name gives are not always drawn.",
  "data": [
    {"smiles": "CC(O)CC(c1ccccc1)C(C(=O)O)c1ccccc1", "note": "(centres unmarked) [NaAHDH, Sodium Salt of 5-Hydroxy-2,3-Diphenyl-Hexanoic Acid]", "values": [
      {"measurement": "LD50", "setting": "[1]; ip, intraperitoneally", "value": 175, "unit": "mg/kg"},
      {"measurement": "LD50", "setting": "[1]; po, administered orally", "value": 998, "unit": "mg/kg"},
      {"measurement": "excitation, reactivity to touch and sound stimuli", "setting": "[2]; doses less than toxic, beginning with 4 mg/kg orally or ip", "value": "slight excitation was observed with enhanced reactivity to touch and sound stimuli"},
      {"measurement": "diameter of the pupil", "setting": "[2]; [4]", "value": "no change was observed in the diameter of the pupil"},
      {"measurement": "hyperthermia", "setting": "[2]; [4]", "value": "slight hyperthermia"},
      {"measurement": "motor coordination, abnormal or stereotyped movements", "setting": "[2]; [4]", "value": "not accompanied by lack of motor coordination or abnormal or stereotyped movements"},
      {"measurement": "hyperthermia", "setting": "[2]; doses very close to the lethal doses", "value": "about 2 °C"},
      {"measurement": "toxic signs", "setting": "[2]; only at doses very close to the lethal doses", "value": "trembling, hyperreactivity to very intense stimuli, interaggressivity, and convulsive phenomena extending to the rear paws"},
      {"measurement": "holes explored in 5 min", "setting": "Perforated board test; [5]", "value": "101 percentage of controls"},
      {"measurement": "movements made in 5 min", "setting": "Perforated board test; [5]", "value": "102 percentage of controls"},
      {"measurement": "holes explored in 5 min", "setting": "Perforated board test; [6]", "value": "121 percentage of controls"},
      {"measurement": "movements made in 5 min", "setting": "Perforated board test; [6]", "value": "116 percentage of controls"},
      {"measurement": "holes explored in 5 min", "setting": "Perforated board test; [7]", "value": "140 percentage of controls"},
      {"measurement": "movements made in 5 min", "setting": "Perforated board test; [7]", "value": "159 percentage of controls"},
      {"measurement": "holes explored in 5 min", "setting": "Perforated board test; [8]", "value": "143 percentage of controls"},
      {"measurement": "movements made in 5 min", "setting": "Perforated board test; [8]", "value": "150 percentage of controls"},
      {"measurement": "movements", "setting": "Perforated board test; orally", "value": "clear increase in movements"},
      {"measurement": "holes explored", "setting": "Perforated board test; orally, significant from 16 mg/kg upward", "value": "large increase in the holes explored"},
      {"measurement": "minimal effective dose", "setting": "Perforated board test; po, orally, read-out: dose from which increase in holes explored is significant", "value": "≥ 16", "unit": "mg/kg"},
      {"measurement": "effects of oxotremorine (hyperthermia, trembling, lacrimation, hypersalivation, defecation)", "setting": "[3]", "value": "unchanged"}
    ]}
  ]
}
